Laboratory results reported in US9688710B2, “Inhibitors of sodium glucose cotransporter 1” (LEXICON PHARMACEUTICALS, INC., priority 2012, dated 2017).

How the values were obtained:
[1] = molecular target: Human sodium/glucose co-transporter type 1 (SGLT1) (Homo sapiens (Human), UniProt P13866); test: In vitro human SGLT1 inhibition assay (14C-AMG uptake); type: cell-based; design: key to SGLT1 (human SGLT1 IC50): ***: a value less than 0.01 μM; **: a value less than 0.1 μM; *: a value less than 1 μM; —: a value not measured or exceeding μM; conditions: HEK293 cells expressing human HA-SGLT1, 14C-AMG uptake
Summary of the method: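 HEK293 cells stably expressing human HA-tagged SGLT1 (30,000/well, overnight) were washed into Na+-containing uptake buffer (140 mM NaCl, HEPES/Tris, 1 mg/mL BSA, pH 7.3). Cells then received compound plus 100 nCi 14C-AMG for 1–2 h at 37 °C; after washing, AMG uptake was quantified by scintillation counting.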

[2] = molecular target: Human sodium/glucose co-transporter type 2 (SGLT2) (Homo sapiens (Human), UniProt P31639); test: In vitro human SGLT2 inhibition assay (14C-AMG uptake); type: cell-based; conditions: HEK293 cells expressing human HA-SGLT2, 14C-AMG uptake
Summary of the method: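 HEK293 cells stably expressing HA-tagged human SGLT2, seeded overnight, washed into Na+-containing HEPES/Tris uptake buffer with 1 mg/mL BSA, pH 7.3. Compound added, then 14C-AMG (100 nCi); 1-2 h at 37 °C, 5% CO2. Washed cells counted by scintillation for 14C-AMG uptake.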

Chain of Human sodium/glucose co-transporter type 1 (SGLT1) (P13866 whole entry): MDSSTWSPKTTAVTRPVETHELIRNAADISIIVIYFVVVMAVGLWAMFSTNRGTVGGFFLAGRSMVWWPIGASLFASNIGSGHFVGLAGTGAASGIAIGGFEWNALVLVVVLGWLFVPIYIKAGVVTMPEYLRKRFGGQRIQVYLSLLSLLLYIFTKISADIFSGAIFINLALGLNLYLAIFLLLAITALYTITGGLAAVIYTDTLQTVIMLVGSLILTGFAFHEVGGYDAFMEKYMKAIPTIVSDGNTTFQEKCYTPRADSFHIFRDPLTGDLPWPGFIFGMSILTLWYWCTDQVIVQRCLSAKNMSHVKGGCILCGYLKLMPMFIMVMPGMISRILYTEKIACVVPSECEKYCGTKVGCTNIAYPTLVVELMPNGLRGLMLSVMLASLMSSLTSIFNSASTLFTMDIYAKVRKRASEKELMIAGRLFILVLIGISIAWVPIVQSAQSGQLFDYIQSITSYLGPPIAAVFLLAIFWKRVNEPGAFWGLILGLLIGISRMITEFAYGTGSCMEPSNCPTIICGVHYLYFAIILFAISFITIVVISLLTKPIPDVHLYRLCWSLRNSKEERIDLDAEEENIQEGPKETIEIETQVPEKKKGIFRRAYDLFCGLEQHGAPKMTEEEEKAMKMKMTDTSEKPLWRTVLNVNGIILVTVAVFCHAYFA
Chain of Human sodium/glucose co-transporter type 2 (SGLT2) (P31639 whole entry): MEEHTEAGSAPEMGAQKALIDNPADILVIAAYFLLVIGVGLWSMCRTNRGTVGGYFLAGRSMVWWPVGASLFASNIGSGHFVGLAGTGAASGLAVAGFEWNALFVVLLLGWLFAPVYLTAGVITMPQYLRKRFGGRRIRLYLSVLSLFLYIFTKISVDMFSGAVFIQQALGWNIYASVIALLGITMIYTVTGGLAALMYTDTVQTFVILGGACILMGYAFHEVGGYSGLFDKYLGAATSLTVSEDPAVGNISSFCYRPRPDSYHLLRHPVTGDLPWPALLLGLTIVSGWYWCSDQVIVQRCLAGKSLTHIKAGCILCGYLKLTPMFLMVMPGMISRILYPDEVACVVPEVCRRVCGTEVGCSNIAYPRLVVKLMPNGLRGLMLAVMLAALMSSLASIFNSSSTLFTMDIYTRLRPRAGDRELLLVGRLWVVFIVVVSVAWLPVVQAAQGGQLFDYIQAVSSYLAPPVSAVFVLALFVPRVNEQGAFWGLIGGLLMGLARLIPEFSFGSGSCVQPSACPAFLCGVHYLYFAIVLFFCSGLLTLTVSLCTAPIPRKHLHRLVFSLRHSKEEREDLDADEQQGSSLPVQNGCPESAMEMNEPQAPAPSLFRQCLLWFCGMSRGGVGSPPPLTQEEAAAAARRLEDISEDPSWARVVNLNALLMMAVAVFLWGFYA

Compound | IC50 [1] | IC50 [2] | SGLT1 (human SGLT1 IC50) [1]
CS[C@H]1O[C@@H](c2ccc(C)c(Cc3ccc(CCCCC(=O)NCCCC[C@H](N)C(=O)O)cc3)c2)[C@H](O)[C@@H](O)[C@@H]1O [(S)-2-amino-6-(5-(4-(2-methyl-5-((2S,3R,4R,5S,6R)-3,4,5-trihydroxy-6-(methylthio)tetrahydro-2H-pyran-2-yl)benzyl)phenyl)pentanamido)hexanoic acid] | < 100 nM | < 10 nM | 
CS[C@H]1OC(c2ccc(C)c(Cc3ccc(OCCCNC(CO)CO)cc3)c2)[C@H](O)[C@@H](O)[C@@H]1O (stereo partly drawn) [(3R,4R,5S,6R)-2-(3-(4-(3-((1,3-dihydroxypropan-2-yl)amino)propoxy)benzyl)-4-methylphenyl)-6-(methylthio)tetrahydro-2H-pyran-3,4,5-triol] | < 10 nM | < 10 nM | 
CS[C@H]1O[C@@H](c2ccc(C)c(Cc3ccc(OCCCC(=O)NC(C)(C)C(N)=O)cc3)c2)[C@H](O)[C@@H](O)[C@@H]1O [N-(1-amino-2-methyl-1-oxopropan-2-yl)-4-(4-(2-methyl-5-((2S,3R,4R,5S,6R)-3,4,5-trihydroxy-6-(methylthio)tetrahydro-2H-pyran-2-yl)benzyl)phenoxy)butanamide] | < 10 nM | < 10 nM | 
CS[C@H]1O[C@@H](c2ccc(C)c(Cc3ccc(CCCCNC(=O)NC(C)(C)C(N)=O)cc3)c2)[C@H](O)[C@@H](O)[C@@H]1O [2-methyl-2-(3-(4-(4-(2-methyl-5-((2S,3R,4R,5S,6R)-3,4,5-trihydroxy-6-(methylthio)tetrahydro-2H-pyran-2-yl)benzyl)phenyl)butyl)ureido)propanamide] | < 10 nM | < 10 nM | 
CS[C@H]1O[C@@H](c2ccc(C)c(Cc3ccc(CCCCNCC(C)(C)C(N)=O)cc3)c2)[C@H](O)[C@@H](O)[C@@H]1O [2,2-dimethyl-3-((4-(4-(2-methyl-5-((3R,4R,5S,6R)-3,4,5-trihydroxy-6-(methylthio)tetrahydro-2H-pyran-2-yl)benzyl)phenyl)butyl)amino)propanamide] | < 10 nM | < 10 nM | 
CS[C@H]1O[C@@H](c2ccc(C)c(Cc3ccc(CCCC(=O)NCC(=O)N4CCN(C)CC4)cc3)c2)[C@H](O)[C@@H](O)[C@@H]1O [4-(4-(2-methyl-5-((2S,3R,4R,5S,6R)-3,4,5-trihydroxy-6-(methylthio)tetrahydro-2H-pyran-2-yl)benzyl)phenyl)-N-(2-(4-methylpiperazin-1-yl)-2-oxoethyl)butanamide] | < 10 nM | < 10 nM | 
CS[C@H]1O[C@@H](c2ccc(C)c(Cc3ccc(CCCCC(=O)NC(CO)(CO)CO)cc3)c2)[C@H](O)[C@@H](O)[C@@H]1O [N-(1,3-dihydroxy-2-(hydroxymethyl)propan-2-yl)-5-(4-(2-methyl-5-((2S,3R,4R,5S,6R)-3,4,5-trihydroxy-6-(methylthio)tetrahydro-2H-pyran-2-yl)benzyl)phenyl)pentanamide] | < 10 nM | < 10 nM | 
CS[C@H]1O[C@@H](c2ccc(C)c(Cc3ccc(CCCCC(=O)N4CCN(C)CC4)cc3)c2)[C@H](O)[C@@H](O)[C@@H]1O [5-(4-(2-methyl-5-((2S,3R,4R,5S,6R)-3,4,5-trihydroxy-6-(methylthio)tetrahydro-2H-pyran-2-yl)benzyl)phenyl)-1-(4-methylpiperazin-1-yl)pentan-1-one] | < 100 nM | < 10 nM | 
CS[C@H]1O[C@@H](c2ccc(C)c(Cc3ccc(OCCCC(=O)NC(C)(C)C(=O)NC4CCNCC4)cc3)c2)[C@H](O)[C@@H](O)[C@@H]1O [N-(2-methyl-1-oxo-1-(piperidin-4-ylamino)propan-2-yl)-4-(4-(2-methyl-5-((2S,3R,4R,5S,6R)-3,4,5-trihydroxy-6-(methylthio)tetrahydro-2H-pyran-2-yl)benzyl)phenoxy)butanamide] | < 10 nM | < 10 nM | 
CS[C@H]1O[C@@H](c2ccc(Cl)c(Cc3ccc(OCCCC(=O)N[C@@H](CO)C(N)=O)cc3)c2)[C@H](O)[C@@H](O)[C@@H]1O [N-((S)-1-amino-3-hydroxy-1-oxopropan-2-yl)-4-(4-(2-chloro-5-((2S,3R,4R,5S,6R)-3,4,5-trihydroxy-6-(methylthio)tetrahydro-2H-pyran-2-yl)benzyl)phenoxy)butanamide] | < 100 nM | < 10 nM | 
CS[C@H]1O[C@@H](c2ccc(Cl)c(Cc3ccc(OCC[C@H](N)C(=O)O)cc3)c2)[C@H](O)[C@@H](O)[C@@H]1O [(S)-2-amino-4-(4-(2-chloro-5-((2S,3R,4R,5S,6R)-3,4,5-trihydroxy-6-(methylthio)tetrahydro-2H-pyran-2-yl)benzyl)phenoxy)butanoic acid] |  | < 100 nM | —
CS[C@H]1O[C@@H](c2ccc(C)c(Cc3ccc(CCCCNC(=O)NC(CO)(CO)CO)cc3)c2)[C@H](O)[C@@H](O)[C@@H]1O [1-(1,3-dihydroxy-2-(hydroxymethyl)propan-2-yl)-3-(4-(4-(2-methyl-5-((2S,3R,4R,5S,6R)-3,4,5-trihydroxy-6-(methylthio)tetrahydro-2H-pyran-2-yl)benzyl)phenyl)butyl)urea] | < 10 nM | < 10 nM | 
CS[C@H]1O[C@@H](c2ccc(C)c(Cc3ccc(CCCC(=O)N4CCN(C)CC4)cc3)c2)[C@H](O)[C@@H](O)[C@@H]1O [4-(4-(2-methyl-5-((2S,3R,4R,5S,6R)-3,4,5-trihydroxy-6-(methylthio)tetrahydro-2H-pyran-2-yl)benzyl)phenyl)-1-(4-methylpiperazin-1-yl)butan-1-one] | < 100 nM | < 10 nM | 
CCC(=O)NCCCCc1ccc(Cc2cc([C@@H]3O[C@H](SC)[C@@H](O)[C@H](O)[C@H]3O)ccc2C)cc1 [N-(4-(4-(2-methyl-5-((2S,3R,4R,5S,6R)-3,4,5-trihydroxy-6-(methylthio)tetrahydro-2H-pyran-2-yl)benzyl)phenyl)butyl)propionamide] | < 10 nM | < 10 nM | 
CS[C@H]1O[C@@H](c2ccc(C)c(Cc3ccc(CCCCCC(=O)NC(CO)(CO)CO)cc3)c2)[C@H](O)[C@@H](O)[C@@H]1O [N-(1,3-dihydroxy-2-(hydroxymethyl)propan-2-yl)-6-(4-(2-methyl-5-((2S,3R,4R,5S,6R)-3,4,5-trihydroxy-6-(methylthio)tetrahydro-2H-pyran-2-yl)benzyl)phenyl)hexanamide] | < 100 nM | < 10 nM | 
CS[C@H]1O[C@@H](c2ccc(C)c(Cc3ccc(CCCC(=O)NC4(C(=O)N5CCN(C)CC5)CCCC4)cc3)c2)[C@H](O)[C@@H](O)[C@@H]1O [4-(4-(2-methyl-5-((2S,3R,4R,5S,6R)-3,4,5-trihydroxy-6-(methylthio)tetrahydro-2H-pyran-2-yl)benzyl)phenyl)-N-(1-(4-methylpiperazine-1-carbonyl)cyclopentyl)butanamide] | < 10 nM | < 10 nM | 
CS[C@H]1O[C@@H](c2ccc(C)c(Cc3ccc(CCCC(=O)NC(C)(C)C(=O)N(C)CCN(C)C)cc3)c2)[C@H](O)[C@@H](O)[C@@H]1O [N-(1-((2-(dimethylamino)ethyl)(methyl)amino)-2-methyl-1-oxopropan-2-yl)-4-(4-(2-methyl-5-((2S,3R,4R,5S,6R)-3,4,5-trihydroxy-6-(methylthio)tetrahydro-2H-pyran-2-yl)benzyl)phenyl)butanamide] | < 10 nM | < 10 nM | 
CS[C@H]1O[C@@H](c2ccc(C)c(Cc3ccc(CCCc4nnn(CC(=O)N5CCN(C)CC5)n4)cc3)c2)[C@H](O)[C@@H](O)[C@@H]1O [2-(5-(3-(4-(2-methyl-5-((2S,3R,4R,5S,6R)-3,4,5-trihydroxy-6-(methylthio)tetrahydro-2H-pyran-2-yl)benzyl)phenyl)propyl)-2H-tetrazol-2-yl)-1-(4-methylpiperazin-1-yl)ethanone] | < 10 nM | < 10 nM | 
CS[C@H]1O[C@@H](c2ccc(C)c(Cc3ccc(OCCNC(=N)N)cc3)c2)[C@H](O)[C@@H](O)[C@@H]1O [1-(2-(4-(2-methyl-5-((2S,3R,4R,5S,6R)-3,4,5-trihydroxy-6-(methylthio)tetrahydro-2H-pyran-2-yl)benzyl)phenoxy)ethyl)guanidine] | < 10 nM | < 10 nM | 
CS[C@H]1O[C@@H](c2ccc(C)c(Cc3ccc(OCCCC(=O)N[C@@H](CC(N)=O)C(N)=O)cc3)c2)[C@H](O)[C@@H](O)[C@@H]1O [(S)-2-(4-(4-(2-methyl-5-((2S,3R,4R,5S,6R)-3,4,5-trihydroxy-6-(methylthio)tetrahydro-2H-pyran-2-yl)benzyl)phenoxy)butanamido)succinamide] | < 100 nM | < 10 nM | 
CS[C@H]1O[C@@H](c2ccc(Cl)c(Cc3ccc(OCCCC(=O)O)cc3)c2)[C@H](O)[C@@H](O)[C@@H]1O [4-(4-(2-chloro-5-((2S,3R,4R,5S,6R)-3,4,5-trihydroxy-6-(methylthio)tetrahydro-2H-pyran-2-yl)benzyl)phenoxy)butanoic acid] | < 1000 nM | < 10 nM | 
Cc1ccc([C@@H]2O[C@H]([S+](C)[O-])[C@@H](O)[C@H](O)[C@H]2O)cc1Cc1ccc(CCCC(=O)NC(C)(C)C(=O)N2CCN(C)CC2)cc1 (stereo partly drawn) [N-(2-methyl-1-(4-methylpiperazin-1-yl)-1-oxopropan-2-yl)-4-(4-(2-methyl-5-((2S,3R,4R,5S,6R)-3,4,5-trihydroxy-6-(methylsulfinyl)tetrahydro-2H-pyran-2-yl)benzyl)phenyl)butanamide] | < 100 nM | < 10 nM | 
